Experimental data from patent publication US7897593B2, “HIV integrase inhibitors” (priority 2006, dated 2011).
Like-named read-outs stand apart in the source and are kept apart here.

Tests used:
[1] = tested on: recombinant NL-Rluc virus; experiment: Inhibition of HIV replication; format: cell-based; conditions: three serum conditions described, the one tabulated is not stated
purified integrase = biological target: T1, purified integrase (Human immunodeficiency virus type 1 group M subtype B, UniProt P12497); experiment: HIV-Integrase binding assay (competition with radiolabeled integrase inhibitor); conditions: competition with [3H]-labeled integrase inhibitor; Cheng and Prusoff
T1 construct: Recombinant integrase (0.26 ng) was incubated with the beads
Description: HIV-Integrase binding assay. In this assay competitive binding experiments with test compounds and a radiolabeled integrase inhibitor (compound A) are performed against purified integrase. […] Binding reactions were carried out in 96-well white polystyrene assay plates (Corning, #3600). The following was added sequentially to each well: 20 μl of water or 20μl of human serum (Cellgro Cat# 35-060-CL), 5 μl of serially diluted compound (in 50% DMSO/50% integrase SPA buffer), 5 μl of [^3H]-compound I (6,000 cpm/μl in SPA buffer) and 20 μl of bead/DNA/enzyme complex. The plates were shaken for 2 hours and then allowed to sit at room temperature without shaking overnight. The [^3H]-compound I binding was measured using a Topcount scintillation counter. Cheng and Prusoff equations were used to convert the inhibition of compound 1 binding into the corresponding Ki value. Activity equal to A refers to a compound having Ki=0.001 to 0.003 μM while B and C denote compounds having Ki=0.003 to 0.05 μM and Ki≧0.050 μM respectively.

HIV-integrase = biological target: T2, HIV-integrase (Human immunodeficiency virus type 1 group M subtype B, UniProt P12497); experiment: HIV-Integrase Inhibition Activity (SPA strand transfer assay); format: biochemical; conditions: recombinant integrase, SPA beads, P33 labeled target DNA
T2 construct: Recombinant integrase (0.26 ng) was incubated with the beads
Description: HIV-Integrase InhibitionActivity. To evaluate in-vitro activity against HIV-integrase, 5 pmole of biotin labeled substrate DNA was bound to 100 μg of Streptavidin coated PVT SPA beads (Amersham Pharmacia Biotech). Recombinant integrase (0.26 ng) was incubated with the beads for 90 min at 37° C. Unbound enzyme was removed by washing the complex followed by addition of inhibitors and 0.1 fmol of P33 labeled target DNA. The reaction was stopped by adding EDTA to a final concentration of 10 mM. Samples were counted in TopCountNXT (Packard) and the CPM was used as a measure of integration. The reaction condition was as described in A. Engelman and R. Craigie, J. Virol 69, 5908-5911 (1995). The sequences of substrate and target DNA were described in Nucleic Acid Research 22, 1121-1122 (1994). Activity equal to A refers to a compound having IC50=0.001 to 0.01 μM B=0.01-0.1, and C≧0.1 μM respectively.

[2] = Human immunodeficiency virus 1, read-out: Antiviral Activity, NL-RLuc virus

Structure (SMILES)	EC50 [1, 2] [nM]	Ki (purified integrase) [nM]	EC50 ([1]; read-out: Antiviral Activity, NL-RLuc virus) [nM]	IC50 (HIV-integrase) [nM]
CN(C)C(=O)C(=O)N1CCC2(CC1)NCCn1c2nc(C(=O)NCc2ccc(F)cc2)c(O)c1=O [Example 34, 1-(2-(Dimethylamino)-2-oxoacetyl)-N-(4-fluorobenzyl)-3′-hydroxy-4′-oxo-4′,6′,7′,8′-tetrahydrospiro[piperidine-4,9′-pyrazino[1,2-a]pyrimidine]-2′-carboxamide]	10 to 100	3 to 50		
CN(C)S(=O)(=O)N1CCC2(CC1)OCCCn1c2nc(C(=O)NCc2ccc(F)cc2)c(O)c1=O [Example 61]	1 to 10	1 to 3		
CN(C)S(=O)(=O)N1CCC2(CC1)COCCn1c2nc(C(=O)NCc2ccc(F)cc2)c(O)c1=O [Example 68]	10 to 100	3 to 50		
CC(=O)N1CCC2(CC1)OCCCn1c2nc(C(=O)NCc2ccc(F)cc2-n2ncnc2C)c(O)c1=O [Example 63]	10 to 100	3 to 50		
Cc1ncnn1-c1cc(F)ccc1CNC(=O)c1nc2n(c(=O)c1O)CCCOC21CCN(S(=O)(=O)N(C)C)CC1 [Example 66]	1 to 10	3 to 50		
Cc1nnc(C(=O)N2CCC3(CC2)OCCCn2c3nc(C(=O)NCc3ccc(F)cc3-n3ncnc3C)c(O)c2=O)o1 [Example 67]	10 to 100	3 to 50		
Cc1ncnn1-c1cc(F)ccc1CNC(=O)c1nc2n(c(=O)c1O)CCOCC21CCN(C(=O)N(C)C)CC1 [Example 71]	10 to 100	3 to 50		
COC(=O)N1CCC2(CC1)COCCn1c2nc(C(=O)NCc2ccc(F)cc2-n2ncnc2C)c(O)c1=O [Example 72]	10 to 100	3 to 50		
COC(=O)N1CCC2(CC1)OCCCn1c2nc(C(=O)NCc2ccc(F)cc2-n2ncnc2C)c(O)c1=O [Example 64]	1 to 10	3 to 50		
CCOC(=O)C(=O)N1CCC2(C1)OCCn1c2nc(C(=O)NCc2ccc(F)cc2-n2ncnc2C)c(O)c1=O (centres unmarked) [Example 47, Ethyl 2-(2-(4-fluoro-2-(5-methyl-1H-1,2,4-triazol-1-yl)benzylcarbamoyl)-3-hydroxy-4-oxo-6,7-dihydro-4H-spiro[pyrimido[2,1-c][1,4]oxazine-9,3′-pyrrolidine]-1′-yl)-2-oxoacetate]	> 100	3 to 50		
CN(C)C(=O)N1CCC2(CC1)OCCCn1c2nc(C(=O)NCc2ccc(F)cc2)c(O)c1=O [Example 59]	1 to 10	1 to 3		
Cc1ncnn1-c1cc(F)ccc1CNC(=O)c1nc2n(c(=O)c1O)CCCOC21CCN(S(C)(=O)=O)CC1 [Example 73]		3 to 50	> 100	
O=C(NCc1ccc(F)cc1N1CCCCS1(=O)=O)c1nc2n(c(=O)c1O)CCCOC21CCN(C(=O)OCc2ccccc2)CC1 [Example 51]	1 to 10	3 to 50		
COC(=O)N1CCC2(CC1)OCCCn1c2nc(C(=O)NCc2ccc(F)cc2)c(O)c1=O [Example 58, Methyl 2′-(4-fluorobenzylcarbamoyl)-3′-hydroxy-4′-oxo-4′,6′,7′,8′-tetrahydrospiro[piperidine-4,10′-pyrimido[2,1-c][1,4]oxazepine]-1-carboxylate]	1 to 10	1 to 3		
Cc1ncnn1-c1cc(F)ccc1CNC(=O)c1nc2n(c(=O)c1O)CCCOC21CCN(C(=O)OCc2ccccc2)CC1 [Example 53]	1 to 10	3 to 50		
Cc1nnc(C(=O)N2CCC3(C2)OCCn2c3nc(C(=O)NCc3ccc(F)cc3)c(O)c2=O)o1 (centres unmarked) [Example 44, N-(4-Fluorobenzyl)-3-hydroxy-1′-(5-methyl-1,3,4-oxadiazole-2-carbonyl)-4-oxo-6,7-dihydro-4H-spiro[pyrimido[2,1-c][1,4]oxazine-9,3′-pyrrolidine]-2-carboxamide]	10 to 100	1 to 3		
CC(=O)N1CCC2(CC1)COCCn1c2nc(C(=O)NCc2ccc(F)cc2-n2ncnc2C)c(O)c1=O [Example 69]	> 100	3 to 50		

Structure (SMILES)	EC50 [1, 2] [nM]	Ki (purified integrase) [nM]	EC50 ([1]; read-out: Antiviral Activity, NL-RLuc virus) [nM]	IC50 (HIV-integrase) [nM]
O=C(NCc1ccc(F)cc1)c1nc2n(c(=O)c1O)CCCOC21CCN(C(=O)OCc2ccccc2)CC1 [Example 48]	10 to 100	1 to 3		
CCOC(=O)C(=O)N1CCC2(C1)OCCn1c2nc(C(=O)NCc2ccc(F)cc2)c(O)c1=O (centres unmarked) [Example 45, Ethyl 2-(2-(4-fluorobenzylcarbamoyl)-3-hydroxy-4-oxo-6,7-dihydro-4H-spiro[pyrimido[2,1-c][1,4]oxazine-9,3′-pyrrolidine]-1′-yl)-2-oxoacetate]	10 to 100	1 to 3		
CN(C)C(=O)C(=O)N1CCC2(CC1)OCCCn1c2nc(C(=O)NCc2ccc(F)cc2)c(O)c1=O [Example 75, 1-(2-(Dimethylamino)-2-oxoacetyl)-N-(4-fluorobenzyl)-3′-hydroxy-4′-oxo-4′,6′,7′,8′-tetrahydrospiro[piperidine-4,10′-pyrimido[2,1-c][1,4]oxazepine]-2′-carboxamide]	10 to 100	3 to 50		
Cc1ncnn1-c1cc(F)ccc1CNC(=O)c1nc2n(c(=O)c1O)CCOCC21CCN(S(=O)(=O)N(C)C)CC1 [Example 70]	10 to 100	3 to 50		
Cc1ncnn1-c1cc(F)ccc1CNC(=O)c1nc2n(c(=O)c1O)CCOCC21CCN(C(=O)OCc2ccccc2)CC1 [Example 55]	1 to 10	3 to 50		
Cc1ncnn1-c1cc(F)ccc1CNC(=O)c1nc2n(c(=O)c1O)CCCOC21CCN(C(=O)N(C)C)CC1 [Example 65]	1 to 10	3 to 50		
Cc1ncnn1-c1cc(F)ccc1CNC(=O)c1nc2n(c(=O)c1O)CCCOC21CCN(C(=O)C(=O)N(C)C)CC1 [Example 74, 1-(2-(Dimethylamino)-2-oxoacetyl)-N-(4-fluoro-2-(5-methyl-1H-1,2,4-triazol-1-yl)benzyl)-3′-hydroxy-4′-oxo-4′,6′,7′,8′-tetrahydrospiro[piperidine-4,10′-pyrimido[2,1-c][1,4]oxazepine]-2′-carboxamide]	> 100	3 to 50		
O=C(NCc1ccc(F)cc1S(=O)(=O)N1CCOCC1)c1nc2n(c(=O)c1O)CCCOC21CCN(C(=O)OCc2ccccc2)CC1 [Example 52]	10 to 100			10 to 100
CN(C)S(=O)(=O)N1CCC2(CC1)OCCn1c2nc(C(=O)NCc2ccc(F)cc2-n2cncn2)c(O)c1=O [Example 1, 1-(N,N-Dimethylsulfamoyl)-N-(4-fluoro-2-(1H-1,2,4-triazol-1-yl)benzyl)-3′-hydroxy-4′-oxo-6′,7′-dihydro-4′H-spiro[piperidine-4,9′-pyrimido[2,1-c][1,4]oxazine]-2′-carboxamide]	1 to 10			1 to 10
O=C(NCc1ccc(F)cc1-n1cncn1)c1nc2n(c(=O)c1O)CCOC21CCN(C(=O)c2ccccc2)CC1 [Example 9]	1 to 10			10 to 100
CN(C)S(=O)(=O)N1CCC2(CC1)OCCn1c2nc(C(=O)NCc2ccc(F)cc2)c(O)c1=O [Example 2]	1 to 10			1 to 10
CCOC(=O)N1CCC2(CC1)OCCn1c2nc(C(=O)NCc2ccc(F)cc2)c(O)c1=O [Example 31, Ethyl 2′-(4-fluorobenzylcarbamoyl)-3′-hydroxy-4′-oxo-6′,7′-dihydro-4′H-spiro[piperidine-4,9′-pyrimido[2,1-c][1,4]oxazine]-1-carboxylate]	1 to 10			1 to 10
Cc1ncnn1-c1cc(F)ccc1CNC(=O)c1nc2n(c(=O)c1O)CCOC21CCN(C(=O)C(=O)N(C)C)C1 (centres unmarked) [Example 41, 1′-(2-(Dimethylamino)-2-oxoacetyl)-N-(4-fluoro-2-(5-methyl-1H-1,2,4-triazol-1-yl)benzyl)-3-hydroxy-4-oxo-6,7-dihydro-4H-spiro[pyrimido[2,1-c][1,4]oxazine-9,3′-pyrrolidine]-2-carboxamide]	> 100			10 to 100
Cc1ccc(S(=O)(=O)N2CCC3(CC2)OCCn2c3nc(C(=O)NCc3ccc(F)cc3-n3nc(C)nc3C)c(O)c2=O)cc1 [Example 17]	1 to 10			10 to 100
CN(C)C(=O)C(=O)N1CCC2(C1)OCCn1c2nc(C(=O)NCc2ccc(F)cc2)c(O)c1=O (centres unmarked) [Example 40, 1′-(2-(Dimethylamino)-2-oxoacetyl)-N-(4-fluorobenzyl)-3-hydroxy-4-oxo-6,7-dihydro-4H-spiro[pyrimido[2,1-c][1,4]oxazine-9, 3′-pyrrolidine]-2-carboxamide]	10 to 100			1 to 10
Cc1ccc(S(=O)(=O)N2CCC3(CC2)OCCn2c3nc(C(=O)NCc3ccc(F)cc3-n3cnc(C)n3)c(O)c2=O)cc1 [Example 15]	1 to 10			10 to 100
Cc1ccc(S(=O)(=O)N2CCC3(CC2)OCCn2c3nc(C(=O)NCc3ccc(F)cc3)c(O)c2=O)cc1 [Example 12]	1 to 10			10 to 100
